Several values for one entry are separate records, joined by “and”; a condition that tells them apart may be missing. Identical values can stand only once.
Tests used:
Format in all cases: cell-based, Acinetobacter baumannii
A. baumannii strain 4448 = test: Potentiation of clarithromycin and vancomycin against clinical isolate; conditions: with compound at 30 μM
Experimental: (§1) As previously stated, A. baumannii 5075 was chosen for these studies due to its virulence and multidrug resistance, but to further analyze the activity of our lead compounds, 23 A. baumannii clinical isolates obtained from Walter Reed Army Institute of Research (WRAIR) were tested.
(§2) Day Cultures (6 h) were subcultured to 5×10^5 CFU/mL in cation adjusted Mueller-Hinton broth (CAMHB). […] One milliliter of the resulting solution was aliquoted into a separate culture tube and was dosed with antibiotic so that the resulting concentration was the highest desirable concentration to be tested. Bacteria treated with antibiotic alone were used as a control. Row one of a 96-well plate was filled with 200 μL of the antibiotic/compound solution, and the remaining rows were filled with 100 μL of the remaining 4 mL bacterial subculture. The wells in row one were mixed five times before 100 μL was transferred to the following row (row two). Row two was then mixed five times, and 100 μL was transferred to row three. This process was repeated until the second to last row had been reached. The last row is left unexposed to antibiotic in order to serve as a negative control. The antibiotic only treated bacteria was plated by aliquoting 200 μL of the treated bacteria into row one and filling the remaining rows with untreated bacteria from the original bacteria subculture. The rows were mixed in the same way as described above. Plates were covered with Glad Press n'Seal and were incubated under stationary conditions at 37° C. for 16 hours. MIC values were recorded as the lowest concentration at which no bacterial growth was observed. Fold reductions were determined by comparison of the compound treated wells with the antibiotic only treated control wells.

A. baumannii strain 4052 = test: as above; conditions: with compound at 30 μM
Experimental: as §1, §2

A. baumannii strain 4490 = test: as above; conditions: with compound at 30 μM
Experimental: as §1, §2

A. baumannii strain 4026 = test: as above; conditions: with compound at 30 μM
Experimental: as §1, §2

A. baumannii strain 4957 = test: as above; conditions: with compound at 30 μM
Experimental: as §1, §2

A. baumannii strain 3560 = test: as above; conditions: with compound at 30 μM
Experimental: as §1, §2

A. baumannii strain 4498 = test: as above; conditions: with compound at 30 μM
Experimental: as §1, §2

A. baumannii strain 8967 = test: as above; conditions: with compound at 30 μM
Experimental: as §1, §2

A. baumannii strain 3785 = test: as above; conditions: with compound at 30 μM
Experimental: as §1, §2

A. baumannii strain 4991 = test: as above; conditions: with compound at 30 μM
Experimental: as §1, §2

A. baumannii strain 3927 = test: as above; conditions: with compound at 30 μM
Experimental: as §1, §2

A. baumannii strain 4027 = test: as above; conditions: with compound at 30 μM
Experimental: as §1, §2

A. baumannii strain 3806 = test: as above; conditions: with compound at 30 μM
Experimental: as §1, §2

A. baumannii strain 4878 = test: as above; conditions: with compound at 30 μM
Experimental: as §1, §2

A. baumannii strain 4025 = test: as above; conditions: with compound at 30 μM
Experimental: as §1, §2

A. baumannii strain 4456 = test: as above; conditions: with compound at 30 μM
Experimental: as §1, §2

A. baumannii strain 4795 = test: as above; conditions: with compound at 30 μM
Experimental: as §1, §2

A. baumannii strain 5197 = test: as above; conditions: with compound at 30 μM
Experimental: as §1, §2

A. baumannii strain 4857 = test: as above; conditions: with compound at 30 μM
Experimental: as §1, §2

A. baumannii strain 5256 = test: as above; conditions: with compound at 30 μM
Experimental: as §1, §2

A. baumannii strain 5711 = test: as above; conditions: with compound at 30 μM
Experimental: as §1, §2

AB 5075 = test: Backlight assay for membrane permeability; conditions: AB5075
Experimental: The assay was initially performed at 10, 20 and 30 μM with compounds 1 and 4 (Table 16). […] When the concentration is lowered to 20 μM, the percent of membrane disrupted also decreases to 78% and 83% respectively. When further decreasing the concentration to 10 μM, the membrane disruption decreases to 39 and 44% respectively. Due to the similar structure and lack of potentiation activity, compound 25 was screened at 10, 20 and 30 μM to compare membrane permeability with that of active compounds. The percent disruption was less than seen with compounds 1 and 4 being 53, 54 and 60% respectively.

For `Nc1nc(-c2ccc(NC(=O)c3cc(Cl)cc(Cl)c3)cc2)c[nH]1` [Compound 1], the “Clarithromycin MIC” value (A. baumannii strain 4448) was no more than 0.25 mg/L, the “Vancomycin MIC” value (A. baumannii strain 4448) was 1 mg/L and the “Clarithromycin MIC” value (A. baumannii strain 4052) was no more than 0.25 mg/L. The “Vancomycin MIC” value (A. baumannii strain 4052) was 4 mg/L, the “Clarithromycin MIC” value (A. baumannii strain 4490) was 0.5 mg/L and the “Vancomycin MIC” value (A. baumannii strain 4490) was 1 mg/L. For the same compound, the “Clarithromycin MIC” value (A. baumannii strain 4026) was 0.5 mg/L, the “Vancomycin MIC” value (A. baumannii strain 4026) was 2 mg/L and the “Clarithromycin MIC” value (A. baumannii strain 4957) was 0.5 mg/L. For the same compound, the “Vancomycin MIC” value (A. baumannii strain 4957) was 8 mg/L, the “Clarithromycin MIC” value (A. baumannii strain 3560) was 0.5 mg/L and the “Vancomycin MIC” value (A. baumannii strain 3560) was 0.5 mg/L. The “Clarithromycin MIC” value (A. baumannii strain 4498) was no more than 0.25 mg/L, the “Vancomycin MIC” value (A. baumannii strain 4498) was 1 mg/L and the “Clarithromycin MIC” value (A. baumannii strain 8967) was 0.25 mg/L. The “Vancomycin MIC” value (A. baumannii strain 8967) was 4 mg/L, the “Clarithromycin MIC” value (A. baumannii strain 3785) was 0.5 mg/L and the “Vancomycin MIC” value (A. baumannii strain 3785) was 1 mg/L. For the same compound, the “Clarithromycin MIC” value (A. baumannii strain 4991) was 0.5 mg/L, the “Vancomycin MIC” value (A. baumannii strain 4991) was 32 mg/L and the “Clarithromycin MIC” value (A. baumannii strain 3927) was 0.5 mg/L. The “Vancomycin MIC” value (A. baumannii strain 3927) was 8 mg/L, the “Clarithromycin MIC” value (A. baumannii strain 4027) was no more than 0.25 mg/L and the “Vancomycin MIC” value (A. baumannii strain 4027) was 1 mg/L. The “Clarithromycin MIC” value (A. baumannii strain 3806) was 0.25 mg/L, the “Vancomycin MIC” value (A. baumannii strain 3806) was 2 mg/L and the “Clarithromycin MIC” value (A. baumannii strain 4878) was 0.5 mg/L. The “Vancomycin MIC” value (A. baumannii strain 4878) was 2 mg/L, the “Clarithromycin MIC” value (A. baumannii strain 4025) was 0.25 mg/L and the “Vancomycin MIC” value (A. baumannii strain 4025) was 2 mg/L. For the same compound, the “Clarithromycin MIC” value (A. baumannii strain 4456) was 0.5 mg/L, the “Vancomycin MIC” value (A. baumannii strain 4456) was 16 mg/L and the “Clarithromycin MIC” value (A. baumannii strain 4795) was 0.5 mg/L. The “Vancomycin MIC” value (A. baumannii strain 4795) was 4 mg/L, the “Clarithromycin MIC” value (A. baumannii strain 5197) was 0.5 mg/L and the “Vancomycin MIC” value (A. baumannii strain 5197) was 16 mg/L. The “Clarithromycin MIC” value (A. baumannii strain 4857) was 0.5 mg/L, the “Vancomycin MIC (μg/mL)” value (A. baumannii strain 4857) was “Toxic” and the “Clarithromycin MIC” value (A. baumannii strain 5256) was 0.25 mg/L. For the same compound, the “Vancomycin MIC” value (A. baumannii strain 5256) was 2 mg/L, the “Clarithromycin MIC” value (A. baumannii strain 5711) was 0.5 mg/L and the “Vancomycin MIC” value (A. baumannii strain 5711) was 8 mg/L. For the same compound, the “Disrupted bacterial membrane (%)” value (AB 5075; compound at 10 μM) was 39% and 38.8% and the “Disrupted bacterial membrane (%)” value (AB 5075; compound at 20 μM) was 78%.

With `Nc1nc(-c2ccc(NC(=O)c3cc(Br)cc(Br)c3)cc2)c[nH]1` [Compound 4] the “Clarithromycin MIC” value (A. baumannii strain 4448) was no more than 0.25 mg/L, the “Vancomycin MIC” value (A. baumannii strain 4448) was 4 mg/L and the “Clarithromycin MIC” value (A. baumannii strain 4052) was no more than 0.25 mg/L. For the same compound, the “Vancomycin MIC” value (A. baumannii strain 4052) was 64 mg/L, the “Clarithromycin MIC” value (A. baumannii strain 4490) was no more than 0.25 mg/L and the “Vancomycin MIC” value (A. baumannii strain 4490) was 8 mg/L. For the same compound, the “Clarithromycin MIC” value (A. baumannii strain 4026) was 1 mg/L, the “Vancomycin MIC” value (A. baumannii strain 4026) was 16 mg/L and the “Clarithromycin MIC” value (A. baumannii strain 4957) was 0.5 mg/L. For the same compound, the “Vancomycin MIC” value (A. baumannii strain 4957) was 8 mg/L, the “Clarithromycin MIC” value (A. baumannii strain 3560) was 0.5 mg/L and the “Vancomycin MIC” value (A. baumannii strain 3560) was 32 mg/L. The “Clarithromycin MIC” value (A. baumannii strain 4498) was no more than 0.25 mg/L, the “Vancomycin MIC” value (A. baumannii strain 4498) was 16 mg/L and the “Clarithromycin MIC” value (A. baumannii strain 8967) was 0.25 mg/L. The “Vancomycin MIC” value (A. baumannii strain 8967) was 8 mg/L, the “Clarithromycin MIC” value (A. baumannii strain 3785) was 0.5 mg/L and the “Vancomycin MIC” value (A. baumannii strain 3785) was 128 mg/L. For the same compound, the “Clarithromycin MIC” value (A. baumannii strain 4991) was 0.5 mg/L, the “Vancomycin MIC” value (A. baumannii strain 4991) was 32 mg/L and the “Clarithromycin MIC” value (A. baumannii strain 3927) was 0.5 mg/L. The “Vancomycin MIC” value (A. baumannii strain 3927) was 64 mg/L, the “Clarithromycin MIC” value (A. baumannii strain 4027) was 0.25 mg/L and the “Vancomycin MIC” value (A. baumannii strain 4027) was 32 mg/L. The “Clarithromycin MIC” value (A. baumannii strain 3806) was no more than 0.125 mg/L, the “Vancomycin MIC” value (A. baumannii strain 3806) was 32 mg/L and the “Clarithromycin MIC” value (A. baumannii strain 4878) was 1 mg/L. For the same compound, the “Vancomycin MIC” value (A. baumannii strain 4878) was 1 mg/L, the “Clarithromycin MIC” value (A. baumannii strain 4025) was 0.25 mg/L and the “Vancomycin MIC” value (A. baumannii strain 4025) was 16 mg/L. The “Clarithromycin MIC” value (A. baumannii strain 4456) was no more than 0.25 mg/L, the “Vancomycin MIC” value (A. baumannii strain 4456) was 64 mg/L and the “Clarithromycin MIC” value (A. baumannii strain 4795) was 0.5 mg/L. For the same compound, the “Vancomycin MIC” value (A. baumannii strain 4795) was 4 mg/L, the “Clarithromycin MIC” value (A. baumannii strain 5197) was 0.5 mg/L and the “Vancomycin MIC” value (A. baumannii strain 5197) was 8 mg/L. For the same compound, the “Clarithromycin MIC” value (A. baumannii strain 4857) was 0.5 mg/L, the “Vancomycin MIC (μg/mL)” value (A. baumannii strain 4857) was “Toxic” and the “Clarithromycin MIC” value (A. baumannii strain 5256) was 0.25 mg/L. The “Vancomycin MIC” value (A. baumannii strain 5256) was 8 mg/L, the “Clarithromycin MIC” value (A. baumannii strain 5711) was 0.5 mg/L and the “Vancomycin MIC” value (A. baumannii strain 5711) was 64 mg/L. The “Disrupted bacterial membrane (%)” value (AB 5075; compound at 10 μM) was 44%, the “Disrupted bacterial membrane (%)” value (AB 5075; compound at 20 μM) was 83% and 83.2% and the “Disrupted bacterial membrane (%)” value (AB 5075; compound at 30 μM) was 87.4%.

From patent US20210283107A1, “Methods to Expand the Spectrum of Gram-Positive Antibiotics” (NORTH CAROLINA STATE UNIVERSITY, priority 2016, published 2021)
